Data published in the supplement of paper PMC10307832.

Key:
Assay in all cases: relative viability (nuclei count vs DMSO), 5 days (fraction); higher = more cells survive
ALW-II-49-7 + Decitabine = compound: Cc1ccc(C(=O)Nc2cccc(C(F)(F)F)c2)cc1Nc1cncc(C(N)=O)c1 [ALW-II-49-7] + Nc1ncn([C@H]2C[C@H](O)[C@@H](CO)O2)c(=O)n1 [Decitabine] (partner 2 µM)
Method in brief: (§1)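 Relative viability was taken as the ratio of nuclei in treated wells to nuclei in vehicle wells. Lung cancer cell lines in 1536-well plates received compounds by pin tool one day after seeding, either one drug alone or a fixed anchor-drug dose plus five library-drug doses (not always all listed) in √10 steps. Nuclei were counted on 4× images after 5 days of treatment, and values are medians of duplicate plates.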

ALW-II-49-7 + Trametinib = compound: Cc1ccc(C(=O)Nc2cccc(C(F)(F)F)c2)cc1Nc1cncc(C(N)=O)c1 [ALW-II-49-7] + CC(=O)Nc1cccc(-n2c(=O)n(C3CC3)c(=O)c3c(Nc4ccc(I)cc4F)n(C)c(=O)c(C)c32)c1 [Trametinib] (partner 0.02 µM)
Method in brief: as §1

XMD13-2 + Decitabine = compound: C1CC1C(=O)NC2=NNC3=C2C=CC(=C3)C4=CC(=CC=C4)C(=O)NC5CC5 [XMD13-2] + Nc1ncn([C@H]2C[C@H](O)[C@@H](CO)O2)c(=O)n1 [Decitabine] (partner 2 µM)
Method in brief: as §1

XMD13-2 + Alpelisib = compound: C1CC1C(=O)NC2=NNC3=C2C=CC(=C3)C4=CC(=CC=C4)C(=O)NC5CC5 [XMD13-2] + Cc1nc(NC(=O)N2CCC[C@H]2C(N)=O)sc1-c1ccnc(C(C)(C)C(F)(F)F)c1 [Alpelisib] (partner 2 µM)
Method in brief: as §1

UMC-11 gave a relative viability (ALW-II-49-7 + Decitabine; first compound 0.08 µM) of 0.642, a relative viability (ALW-II-49-7 + Decitabine; first compound 0.253 µM) of 0.663 and a relative viability (ALW-II-49-7 + Decitabine; first compound 0.8 µM) of 0.58. The relative viability (ALW-II-49-7 + Decitabine; first compound 2.53 µM) was 0.419, the relative viability (ALW-II-49-7 + Decitabine; first compound 8 µM) was 0.552 and the relative viability (ALW-II-49-7 + Trametinib; first compound 0.08 µM) was 0.791. The relative viability (ALW-II-49-7 + Trametinib; first compound 0.253 µM) was 0.69, the relative viability (ALW-II-49-7 + Trametinib; first compound 0.8 µM) was 0.896 and the relative viability (ALW-II-49-7 + Trametinib; first compound 2.53 µM) was 0.821. The relative viability (ALW-II-49-7 + Trametinib; first compound 8 µM) was 0.599, the relative viability (XMD13-2 + Decitabine; first compound 0.05 µM) was 0.62 and the relative viability (XMD13-2 + Decitabine; first compound 0.1581 µM) was 0.585. The relative viability (XMD13-2 + Decitabine; first compound 0.5 µM) was 0.793, the relative viability (XMD13-2 + Decitabine; first compound 1.581 µM) was 0.625 and the relative viability (XMD13-2 + Decitabine; first compound 5 µM) was 0.579. The relative viability (XMD13-2 + Alpelisib; first compound 0.05 µM) was 1.22, the relative viability (XMD13-2 + Alpelisib; first compound 0.1581 µM) was 1.07 and the relative viability (XMD13-2 + Alpelisib; first compound 0.5 µM) was 0.944. The relative viability (XMD13-2 + Alpelisib; first compound 1.581 µM) was 0.924 and the relative viability (XMD13-2 + Alpelisib; first compound 5 µM) was 1.13.
